Results: patent EP4119145A1, “COMPOUNDS FOR THE TREATMENT OF COVID-19” (priority 2021, dated 2023)
Where a name gives a salt, the structure may show the parent alone. Read-outs that look alike come from different tables or passages of the source.

Target: SARS-CoV-2 PL-Pro (Severe acute respiratory syndrome coronavirus 2, UniProt P0DTD1)
Experiment: biochemical
Conditions: for inhibition at 20 µM: read-out: PLPro Inhibition [%] Primary Screen (20 µM)
[1] = dose response, 0.014 µM to 20 µM, 8 concentration points, read-out: IC50

In the case of Cc1nc2c(=O)n(C)c(=O)nc-2n(C)n1 [Compound 2, 1,3,6-Trimethylpyrimido[5,4-e][1,2,4]triazine-5,7(1H,6H)-dione], the IC50 [1] is reported as 74 nM and the inhibition at 20 µM is reported as 181%.
Cc1cc2nc3c(=O)[nH]c(=O)nc-3n(C)c2cc1C=O [Compound 3, 7,10-Dimethyl-2,4-dioxo-2,3,4,10-tetrahydrobenzo[g]pteridine-8-carbaldehyde] showed an IC50 [1] of 401 nM and an inhibition at 20 µM of 119%.
For O=C1C(=O)c2cc([N+](=O)[O-])ccc2-c2ccccc21 [Compound 4, 2-Nitrophenanthrene-9,10-dione], the IC50 [1] was 129 nM and the inhibition at 20 µM was 186%.
CC(C)(C)C(=O)Nc1ccc2c(c1)C(=O)C(=O)c1ccccc1-2 [Compound 5, N-(9,10-Dioxo-9,10-dihydrophenanthren-2-yl)-2,2-dimethylpropionamide] was tested, and the IC50 [1] was 246 nM and the inhibition at 20 µM was 184%.
Work on O=C1C(=O)c2ccccc2-c2ccccc21 [Compound 6, phenanthrene-9,10-dione] yielded an IC50 [1] of 504 nM and an inhibition at 20 µM of 181%.
For Cc1c(S(=O)(=O)O)oc2c1C(=O)C(=O)c1c-2ccc2c1CCCC2(C)C [Compound 8, 1,6,6-Trimethyl-10,11-dioxo-6,7,8,9,10,11-hexahydrophenanthro[1,2-b]furan-2-sulfonic acid sodium salt], the inhibition at 20 µM was 124%.
In the case of CC1(C)C(=O)N=C2C1=C(O)C(=O)c1ccccc12 [Compound 9, 4-Hydroxy-3,3-dimethyl-3,5-dihydro-2H-benzobenzo[g]indole-2,5-dione], the IC50 [1] is reported as 390 nM and the inhibition at 20 µM is reported as 155%.
Work on CC1(C)CCC2=C(O1)c1ccccc1C(=O)C2=O [Compound 10, 2,2-Dimethyl-3,4-dihydro-2H-benzo[h]1-benzopyrane-5,6-dione] yielded an IC50 [1] of 4430 nM and an inhibition at 20 µM of 146%.
For Cc1cccc2c1ccc1c3c(c(=O)oc(=O)c12)[C@@H](C)CO3 [Compound 11, (4R)-4,9-Dimethyl-4,5-dihydrofuro[3,2-c]naphtho[2,1-e]oxepine-1,3-dione], the IC50 [1] was 920 nM and the inhibition at 20 µM was 80.7%.
O=C1C(Cl)=C(NCCN2CCOCC2)C(=O)c2ncccc21 [Compound 12, 6-Chloro-7-[2-(4-morpholinyl)ethylamino]-5,8-dihydroquinoline-5,8-dione] gave an IC50 of 220 nM and an inhibition at 20 µM of 151%.
In the case of Cc1ccc(NC2=CC(=O)c3sc(C)nc3C2=O)cc1 [Compound 13, 2-methyl-5-(4-methylanilino)-1,3-benzothiazole-4,7-dione], the IC50 [1] is reported as 260 nM and the inhibition at 20 µM is reported as 160%.
CC[N+](C)(CC)CCC[n+]1c(-c2ccccc2)c2cc(N)ccc2c2ccc(N)cc21 [Compound 14, 3,8-Diamino-5-(3-(diethyl(methyl)ammonio)propyl)-6-phenylphenanthridin-5-ium iodide] was tested, and the IC50 was 240 nM and the inhibition at 20 µM was 136%.
Molecule CCOC(=O)C1=C(C)N=c2s/c(=C\c3ccc(OCC(=O)O)cc3)c(=O)n2C1c1ccc(SC)cc1 (centres unmarked) [Compound 15, 2-[4-[(Z)-[6-ethoxycarbonyl-7-methyl-5-(4-methylsulfanylphenyl)-3-oxo-5H-[1,3]thiazolo[3,2-a]pyrimidin-2-ylidene]methyl]phenoxy]acetic acid] has an IC50 [1] of 3140 nM and an inhibition at 20 µM of 82.8%.
Work on CC(=NNC(=N)N)c1cc(NC(=O)CCCCCCCCC(=O)Nc2cc(C(C)=NNC(=N)N)cc(C(C)=NNC(=N)N)c2)cc(C(C)=NNC(=N)N)c1 [Compound 16, N,N'-Bis[3,5-bis[1-(2-amidinohydrazono)ethyl]phenyl]decanediamide] yielded an IC50 [1] of 1210 nM and an inhibition at 20 µM of 140%.
For “cobalt(3+);[(2R,3S,4R,5S)-5-(5,6-dimethylbenzimidazol-1-yl)-4-hydroxy-2-(hydroxymethyl)oxolan-3-yl][(2R)-1-[3-[(1R,2R,3R,4Z,7S,9Z,12S,13S,14Z,17S,18S,19R)-2,13,18-tris(2-amino-2-oxoethyl)-7,12,17-tris(3-amino-3-oxopropyl)-3,5,8,8,13,15,18,19-octamethyl-2,7,12,17-tetrahydro-1H-corrin-21-id-3-yl]propanoylamino]propan-2-yl] phosphate;cyanide [Compound 17]”, the “PLPro Inhibition [%] Primary Screen (20 µM)” value was 141.27% and the IC50 (read-out: IC50) was 2900 nM.
